Entries after “also recorded” stand apart in the source; their conditions may differ.
Tested on: NF-κB
Test: NF-κB electrophoretic mobility shift assay (EMSA) on cultured, treated milk cells from chronic mastitis-affected cows
Format: cell-based, Holstein-Friesian cows
Conditions: protein extraction 3 hours after treatment, versus untreated cells
Protocol: Isolated milk cells were centrifuged for 10 minutes at 300 g and the pellet was resuspended in 600 μl lysis buffer (0.1% nonidet P-40; 10 mM Tris HCl, pH 7.4; 10 mM NaCl; 3 mM MgCl2; 1 mM EDTA; 2 mM orthovanadate; 1 mM diisopropyl fluorophosphates (DFP); 10 μg/ml leupeptin; 10 μg/ml aprotinin). The cells were vortexed 15 seconds, kept on ice for 5 minutes, and centrifuged for 10 minutes at 300 g. The resulting pellet was resuspended in a KCl buffer (10 mM Hepes, pH 7.4; 400 mM KCl; 10% Glycerol; 2 mM EDTA; 1 mM Ethylene glycol-bis[β-aminoethyl ether]-N, N,N′N′-tetraacetic acid (EGTA); 1% nonidet P-40, 1 mM dithiothreitol (DTT); 2 mM orthovanadate; 10 μg/ml leupeptin; 10 μg/ml aprotinin; 1 mM DFP) and kept at 4° C. for 10 minutes before centrifugation for 15 minutes at 12,000 g. The supernatant was diluted three times and stored at −80° C. until use.
Binding reactions were performed for 30 minutes at room temperature with 5 μg of total protein extracts in 20 mM Hepes (pH 7.9), 10 mM KCl, 0.2 mM EDTA, 20% (v/v) glycerol, 1% (w/v) acetylated bovine serum albumin, 3 μg of poly(dI-dC) (Amersham Pharmacia Biotech, Aylesbury, U.K.), 1 mM DTT (dithiothreitol), 1 mM phenylmethylsulfonyl fluoride, and 100,000 cpm of ^32P-labeled double-stranded oligonucleotide probes. Probes were prepared by annealing the appropriate single-stranded oligonucleotides (Eurogentech, Liège, Belgium) at 65° C. for 10 minutes in 10 mM Tris, 1 mM EDTA, and 10 mM NaCl, followed by slow cooling to room temperature. The probes were labeled by end-filling with the Klenow fragment of E. coli DNA polymerase I (Roche, Mannheim, Germany), with [^32P]dATP and [^32P]dCTP (Dupont-New England Nuclear, Les Ulis, Fance). Labeled probes were purified by spin chromatography on Sephadex G-25 columns (Roche). […] The amount of specific complexes was determined by photodensitometry of the autoradiography. […] The NF-κB activity was assessed by photodensitometry of the specific bands. […]

| SMILES | NF-κB activity (DNA-binding activity by EMSA, photodensitometry) (15d-PGJ2 at 40 μM, 50 μM, 60 μM and 80 μM) | NF-κB activity (DNA-binding activity by EMSA, photodensitometry) (gliotoxine at 1 μl/ml) | NF-κB activity (DNA-binding activity by EMSA, photodensitometry) (gliotoxine at 1 μl/ml, listed as gliotoxine) |
| --- | --- | --- | --- |
| CCCCCC=CC=C1C(=O)C=C[C@@H]1CC=CCCCC(=O)O [15d-PGJ2, 15-deoxy-Δ.12,14-prostaglandin J2] | reduced NF-κB activity; also recorded: inhibit NF-κB activation | – | – |
| CN1C(=O)[C@]23CC4=CC=C[C@H](O)[C@H]4N2C(=O)[C@@]1(CO)SS3 [glyotoxine, gliotoxin] | – | reduced NF-κB activity | inhibit NF-κB activation |

Reference: patent US20060240011A1, “Use of nf-kappa b inhibitors for the treatment of mastitis” (priority 2002, published 2006)
